Measurements: patent publication US20220281848A1, “PYRAZOLE-SUBSTITUTED PYRROLIDINONES AS HERBICIDES” (FMC Corporation, priority 2019, published 2022)

Legend:
Type in all cases: in vivo
corn (Zea mays, ZEAMX) = assay: Test A pre-emergence, corn; details: after 13 d
Procedure, shortened: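 After sowing in pots and a single day of glasshouse cultivation, the soil was treated with an aqueous spray of the compound (acetone/water 50:50, 0.5% Tween 20) giving 15.625, 62.5 or 250 g/ha. Evaluation after 13 d used a scale where 0 meant no damage and 100 total damage.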

[1] = test system: barnyardgrass (Echinochloa crus-galli, ECHCG); assay: Test A post-emergence, barnyardgrass; details: after 13 d
Procedure, shortened: (§1)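 Visual damage rating (0 no damage to 100 total damage) was made 13 d after spraying. The spray was 15.625, 62.5 or 250 g/ha in 50:50 acetone/water with 0.5% Tween 20, applied to 8-day-old glasshouse plants kept at 24/16° C, 14 h light and 65% humidity.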

[2] = test system: redroot pigweed (Amaranthus retroflexus, AMARE); assay: Test A post-emergence, redroot pigweed; details: after 13 d
Procedure, shortened: as §1

[3] = test system: velvetleaf (Abutilon theophrasti, ABUTH); assay: Test A post-emergence, velvetleaf; details: after 13 d
Procedure, shortened: as §1

maize = assay: Test D pre-emergence, maize seed treated with a herbicide safener; details: ZEAMX, preemergent, 20 DAA
Description: (§2) A formulation containing 50 g/L of the test chemical was prepared by dissolving the active ingredient in a mixture of organic solvents and emulsifier, details of which are provided in the table. This formulation was then mixed with a small, variable amount of acetone to aid dissolution, before addition of a 0.2% v/v aqueous solution of an adjuvant, as the aqueous diluent, to form an aqueous spray solution which contains a predetermined concentration of the active ingredient.
(§3) This aqueous spray solution was then sprayed onto plants including maize and wheat that had been seed treated with a herbicide safener, after one day's cultivation (for pre-emergence) or after about 12 days' cultivation (for post-emergence). The plants were grown from seeds sown in standard soil, placed in a glasshouse under controlled conditions (at 24/18° C. or 20/16° C., day/night; 16 h light; 65% humidity). After spray application the plants were then grown in a glasshouse under the same conditions and watered twice daily. After 15 d for post-emergence and 20 DAA for pre-emergence the test was evaluated (100=total damage to plant; 0=no damage to plant).

wheat = assay: Test D post-emergence, wheat seed treated with a herbicide safener; details: "Cereals" Postemergent
Description: as §2, §3

[4] = Rates 130, evaluated after 15 d
[5] = Rates 250, evaluated after 15 d
[6] = Rates 500, evaluated after 15 d

Row | SMILES | damage to plant (100=total damage; 0=no damage) ZEAMX (corn (Zea mays, ZEAMX); Pre-Emergence at 15.625 g/ha) | damage to plant (100=total damage; 0=no damage) ZEAMX (corn (Zea mays, ZEAMX); Pre-Emergence at 62.5 g/ha) | damage to plant (100=total damage; 0=no damage) ZEAMX (corn (Zea mays, ZEAMX); Pre-Emergence at 250 g/ha) | damage to plant (100=total damage; 0=no damage) ECHCG ([1]; Post-Emergence at 15.625 g/ha) | damage to plant (100=total damage; 0=no damage) ECHCG ([1]; Post-Emergence at 62.5 g/ha) | damage to plant (100=total damage; 0=no damage) ECHCG ([1]; Post-Emergence at 250 g/ha) | damage to plant (100=total damage; 0=no damage) AMARE ([2]; Post-Emergence at 15.625 g/ha) | damage to plant (100=total damage; 0=no damage) AMARE ([2]; Post-Emergence at 62.5 g/ha) | damage to plant (100=total damage; 0=no damage) AMARE ([2]; Post-Emergence at 250 g/ha) | damage to plant (100=total damage; 0=no damage) ABUTH ([3]; Post-Emergence at 15.625 g/ha) | damage to plant (100=total damage; 0=no damage) ABUTH ([3]; Post-Emergence at 62.5 g/ha) | damage to plant (100=total damage; 0=no damage) ABUTH ([3]; Post-Emergence at 250 g/ha) | damage to plant (100=total damage to plant; 0=no damage to plant), ZEAMX (maize; rate 15) | damage to plant (100=total damage to plant; 0=no damage to plant), ZEAMX (maize; rate 30) | damage to plant (100=total damage to plant; 0=no damage to plant), ZEAMX (maize; rate 60) | damage to plant (100=total damage to plant; 0=no damage to plant), ZEAMX (maize; rate 130) | damage to plant (100=total damage to plant; 0=no damage to plant), ZEAMX (maize; rate 250) | damage to plant (100=total damage to plant; 0=no damage to plant), ZEAMX (maize; rate 500) | TRZAW damage rating (100=total damage to plant; 0=no damage to plant) (wheat; [4]) | TRZAW damage rating (100=total damage to plant; 0=no damage to plant) (wheat; [5]) | other results
1 | CN1CC(c2cc(C(F)(F)F)n(C)n2)C(C(=O)Nc2ccc(F)cc2F)C1=O (racemic) [Compound 6] | 10 | 20 | 60 | 70 | 70 | 70 | 0 | 10 | 10 | 60 | 70 | 60 | 0 | 0 | 0 | 0 | 0 | 0 | 0 | 10 | TRZAW damage rating (100=total damage to plant; 0=no damage to plant) (wheat; [6]): 20
2 | CN1CC(c2cc(C(F)(F)F)n(C)n2)C(C(=O)Nc2ccc(F)c(F)c2F)C1=O (racemic) [Compound 17] | 60 | 70 | 90 | 60 | 70 | 80 | 0 | 20 | 50 | 0 | 0 | 0 | 0 | 0 | 0 | 0 | 10 | 30 | 0 | 40 | TRZAW damage rating (100=total damage to plant; 0=no damage to plant) (wheat; [6]): 70
3 | COc1c(F)cccc1NC(=O)C1C(=O)N(C)CC1c1cc(C(F)(F)F)n(C)n1 (racemic) [Compound 18] | 30 | 60 | 80 | 50 | 70 | 70 | 0 | 0 | 0 | 0 | 0 | 0 | 0 | 0 | 0 | 0 | 0 | 0 | 0 | 10 | TRZAW damage rating (100=total damage to plant; 0=no damage to plant) (wheat; [6]): 40
